Assay results published in article PMC10586285 (ACS Omega, 2023).
Like-named read-outs stand apart in the source and are kept apart here.

Experiments:
[1] = molecular target: T1, COX-2 (Homo sapiens, UniProt P35354); assay: biochemical; settings: for COX-2 selectivity: selectivity index = IC50 COX-1 / IC50 COX-2
T1 sequence (P35354 18-604): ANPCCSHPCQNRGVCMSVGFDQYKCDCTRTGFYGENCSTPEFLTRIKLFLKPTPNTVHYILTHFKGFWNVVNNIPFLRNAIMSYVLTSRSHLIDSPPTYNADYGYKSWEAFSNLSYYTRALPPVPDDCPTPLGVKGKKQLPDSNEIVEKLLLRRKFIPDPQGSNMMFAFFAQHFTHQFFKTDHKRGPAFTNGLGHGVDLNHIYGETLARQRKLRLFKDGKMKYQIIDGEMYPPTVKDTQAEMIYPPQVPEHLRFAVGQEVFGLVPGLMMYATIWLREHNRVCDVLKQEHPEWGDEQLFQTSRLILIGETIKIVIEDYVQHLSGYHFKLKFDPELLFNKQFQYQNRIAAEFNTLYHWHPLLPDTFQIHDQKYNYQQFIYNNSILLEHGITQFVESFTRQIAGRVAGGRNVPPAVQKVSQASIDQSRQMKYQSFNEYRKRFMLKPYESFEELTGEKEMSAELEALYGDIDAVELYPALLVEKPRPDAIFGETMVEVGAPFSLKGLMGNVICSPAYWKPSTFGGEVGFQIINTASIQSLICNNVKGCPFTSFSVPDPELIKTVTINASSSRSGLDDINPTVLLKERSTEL

[2] = test system: Hep G2 cells; assay: Anticancer test; assay type: cell-based; settings: for IC50: read-out: IC50 (Hep G2)
[3] = DPPH antioxidant; settings: for IC50: read-out: IC50 (Antioxidant), DPPH assay
[4] = test system: Caco-2 cells; assay: Anticancer test; assay type: cell-based; settings: for IC50: read-out: IC50 (Caco-2 Cells)
[5] = molecular target: COX-1 (Homo sapiens, UniProt P23219); assay: biochemical
Chain of COX-1 (P23219 24-599): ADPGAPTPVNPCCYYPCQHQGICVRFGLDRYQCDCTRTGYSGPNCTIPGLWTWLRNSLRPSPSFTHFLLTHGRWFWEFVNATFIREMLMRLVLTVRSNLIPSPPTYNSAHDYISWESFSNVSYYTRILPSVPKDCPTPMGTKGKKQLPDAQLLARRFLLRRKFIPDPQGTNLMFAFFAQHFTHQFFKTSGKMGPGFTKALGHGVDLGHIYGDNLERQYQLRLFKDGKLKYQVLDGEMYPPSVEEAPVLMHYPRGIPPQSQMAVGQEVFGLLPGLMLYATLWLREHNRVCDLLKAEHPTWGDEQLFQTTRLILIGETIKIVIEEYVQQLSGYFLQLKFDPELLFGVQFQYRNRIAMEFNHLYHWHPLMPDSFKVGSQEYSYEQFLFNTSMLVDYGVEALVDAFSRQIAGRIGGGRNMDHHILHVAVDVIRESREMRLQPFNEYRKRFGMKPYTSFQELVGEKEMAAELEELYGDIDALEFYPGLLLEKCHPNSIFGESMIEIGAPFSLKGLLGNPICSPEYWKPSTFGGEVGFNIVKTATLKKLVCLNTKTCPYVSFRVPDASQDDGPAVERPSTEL

[6] = test system: HeLa cells; assay: Anticancer test; assay type: cell-based; settings: for IC50: read-out: IC50 (Hela Cells)
[7] = cited from earlier work
[8] = cited from earlier work; remark: listed apart in the source
[9] = read-out: COX-2 IC50, human COX-2, ELISA kit
[10] = Hep G2 cells, MTS, 48 h, concentration range 100-20,000 nM
[11] = Caco-2 cells, MTS, 48 h, concentration range 100-20,000 nM
[12] = read-out: COX-1 IC50, human COX-1, ELISA kit

Row | COX-2 selectivity [1] | IC50 [1] [µM] | IC50 [5] [µM] | Compound | percentage inhibition of DPPH ([3]; conc 1 μg/mL) [%] | percentage inhibition of DPPH ([3]; conc 2 μg/mL) [%] | percentage inhibition of DPPH ([3]; conc 3 μg/mL) [%] | percentage inhibition of DPPH ([3]; conc 5 μg/mL) [%] | percentage inhibition of DPPH ([3]; conc 7 μg/mL) [%] | percentage inhibition of DPPH ([3]; conc 10 μg/mL) [%] | percentage inhibition of DPPH ([3]; conc 20 μg/mL) [%] | percentage inhibition of DPPH ([3]; conc 30 μg/mL) [%] | percentage inhibition of DPPH ([3]; conc 50 μg/mL) [%] | further results
1 | 1.67 | – | – | 9-Phenyl-9H-thioxanthen-9-ol [Compound 3] | 0.14 ± 0.02 | 0.15 ± 0.01 | 0.15 ± 0.03 | 0.29 ± 0.01 | 18.20 ± 1.40 | 18.00 ± 2.37 | 15.60 ± 2.01 | 19.90 ± 1.0 | 20.00 ± 3.12 | IC50 [1, 9]: 0.00769 ± 0.00055 µM; IC50 [2, 10]: 0.438 ± 0.033 µM; IC50 [4, 11]: 0.0096 ± 0.0011 µM; IC50 [5, 12]: 0.0128 ± 0.00063 µM
2 | – | – | – | 9-Phenyl-9H-xanthen-9-ol [Compound 4] | 10 ± 0.01 | 16.0 ± 0.02 | 27.0 ± 0.01 | 33.0 ± 1.21 | 33.0 ± 2.13 | 35.0 ± 2.31 | 35.0 ± 3.31 | 39.0 ± 5.51 | 39.4 ± 2.44 | IC50 [1, 9]: 0.014 ± 0.0017 µM; inhibition against Hep G2 cells ([2]; at 0.2 μM): 100%; IC50 [2, 10]: 0.4 ± 0.056 µM; inhibition against HeLa cells ([6]; at 0.2 μM): 98%; IC50 [3]: 15.4 ± 6 µM; percentage inhibition against Caco-2 cells ([4]; at 0.2 μM): 98%; IC50 [4, 11]: 0.0246 ± 0.008 µM; IC50 [5, 12]: 0.00652 ± 0.00085 µM
3 | – | – | – | OC1(Cc2ccccc2)c2ccccc2Oc2ccccc21 [Compound 1, 9-Benzyl-9H-xanthen-9-ol] | 0.31 ± 0.02 | 0.36 ± 0.02 | 0.36 ± 0.01 | 0.31 ± 0.01 | 36.40 ± 4.11 | 36.40 ± 3.31 | 40.20 ± 5.21 | 35.50 ± 1.01 | 35.10 ± 3.31 | IC50 ([6]; Homo sapiens, HeLa, 48 h): 0.213 µM; inhibition at 0.2 µM ([6]; Homo sapiens, HeLa, read-out: inhibition against HeLa cells): 96%; inhibition at 0.2 µM ([4]; Homo sapiens, Caco-2, read-out: percentage inhibition against Caco-2 cells): 96%
4 | 0.78 | 0.0072 ± 0.00058 | 0.00563 ± 0.00074 | OC1(Cc2ccccc2)c2ccccc2Sc2ccccc21 [Compound 2, 9-Benzyl-9H-thioxanthen-9-ol] | 0.26 ± 0.01 | 0.26 ± 0.03 | 0.33 ± 0.04 | 0.33 ± 0.01 | 26.00 ± 7.20 | 27.00 ± 1.03 | 28.00 ± 2.14 | 29.00 ± 1.15 | 32.00 ± 3.75 | IC50 ([2]; Homo sapiens, HepG2, 48 h): 0.161 ± 0.041 µM; inhibition at 0.2 µM ([2]; Homo sapiens, HepG2, read-out: inhibition against Hep G2 cells): 100%
5 | – | – | – | N[C@@H](CSC1(Cc2ccccc2)c2ccccc2Oc2ccccc21)C(=O)O [Compound 5, S-(9-benzyl-9H-xanthen-9-yl)-L-cysteine] | 5.0 ± 0.01 | 6.0 ± 0.02 | 7.0 ± 0.01 | 7.0 ± 0.51 | 7.0 ± 0.67 | 7.0 ± 0.35 | 11.4 ± 1.01 | 11.4 ± 2.10 | 12.0 ± 1.33 | –
6 | 0.33 | 0.13 ± 0.00171 | 0.0424 ± 0.00058 | N[C@@H](CSC1(c2ccccc2)c2ccccc2Oc2ccccc21)C(=O)O [Compound 6, S-(9-phenyl-9H-xanthen-9-yl)-L-cysteine] | 18.0 ± 1.02 | 18.0 ± 2.03 | 22.0 ± 1.01 | 28.0 ± 0.01 | 28.0 ± 0.01 | 30.0 ± 0.01 | 30.0 ± 0.01 | 30.0 ± 0.01 | 30.0 ± 0.01 | IC50 (Hep G2) [2, 10]: did not exhibit any inhibition
7 | – | 0.00437 ± 0.00078 | 0.0167 ± 0.00084 | N[C@@H](CSC1(c2ccccc2)c2ccccc2Sc2ccccc21)C(=O)O [Compound 7, S-(9-phenyl-9H-thioxanthen-9-yl)-L-cysteine] | 22.0 ± 3.31 | 22.0 ± 3.11 | 22.0 ± 2.22 | 29.0 ± 4.22 | 22.0 ± 1.22 | 26.0 ± 3.44 | 23.0 ± 1.11 | 23.0 ± 1.21 | 23.0 ± 3.10 | COX-2 selectivity ([1]; listed as comp (7)): 3.78; IC50 (Hep G2) [2, 10]: did not exhibit any inhibition; IC50 (Hela Cells) ([6]; HeLa cells, MTS, 48 h, concentration range 100-20,000 nM): no activity
8 | – | – | – | N[C@@H](CSC(c1ccccc1)(c1ccccc1)c1ccccc1)C(=O)O [STLC, S-trityl-L-cysteine] | – | – | – | – | – | – | – | – | – | water solubility [7]: poor; permeability [8]: poor
9 | – | – | – | Cc1c(C)c2c(c(C)c1O)CCC(C)(C(=O)O)O2 (stereo not drawn) [Trolox, reference compound] | 37 ± 2.21 | 54 ± 3.42 | 81 ± 4.25 | 86 ± 5.33 | 91 ± 7.52 | 92 ± 10.71 | 93 ± 13.90 | 94 ± 10.89 | 94.5 ± 12.64 | IC50 [3]: 6.07 ± 0.8 µM
10 | – | – | – | COc1cccc2c1C(=O)c1c(O)c3c(c(O)c1C2=O)C[C@@](O)(C(=O)CO)C[C@@H]3O[C@H]1C[C@H](N)[C@H](O)[C@H](C)O1 [doxorubicin, reference compound] | – | – | – | – | – | – | – | – | – | IC50 ([2]; Homo sapiens, HepG2, 48 h): 1.06 ± 0.043 µM; IC50 ([6]; Homo sapiens, HeLa, 48 h): 0.11 ± 0.015 µM; IC50 ([4]; Homo sapiens, Caco-2, 48 h): 0.497 ± 0.00036 µM
